In patent US9833497B2, “Human originated EGF domain proteins and use of the same” (CHENGDU SOURCEBIO LIMITED-LIABILITY COMPANY, priority 2013, dated 2017):

Tests used:
Type in all cases: cell-based
[1] = tested on: Pseudomonas aeruginosa; assay: MIC against Gram-negative bacteria: Pseudomonas aeruginosa; conditions: P. aeruginosa; 10 h cultivation at 37° C.
How it was run: (§1)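 LB broth cultures at McFarland 0.5, spun down, resuspended, diluted to 5×10^5 CFU/mL final. Two-fold serial dilutions of purified human EGF domain proteins, triplicate. 37° C, 175 rpm shaking. Endpoint: no visible growth.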

[2] = tested on: Enterobacter cloacae; assay: MIC against Gram-negative bacteria: Enterobacter cloacae; conditions: E. cloacae; 10 h cultivation at 37° C.
How it was run: as §1

[3] = tested on: Aeromonas hydrophila; assay: MIC against Gram-negative bacteria: Aeromonas hydrophila; conditions: A. hydrophila; 10 h cultivation at 37° C.
How it was run: as §1

[4] = tested on: Proteus vulgaris; assay: MIC against Gram-negative bacteria: Proteus vulgaris; conditions: P. vulgaris; 10 h cultivation at 37° C.
How it was run: as §1

[5] = tested on: Serratia marcescens; assay: MIC against Gram-negative bacteria: Serratia marcescens; conditions: S. marcescens; 10 h cultivation at 37° C.
How it was run: as §1

[6] = tested on: E. coli DH5α; assay: Antibacterial activity: MIC and growth curve against E. coli DH5α in 96-well plate; conditions: minimal inhibitory concentration against E. coli DH5α; 96-well plate, 5×10^5 CFU/mL, 37° C., judged after 8 h
How it was run: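 Log-phase DH5α (OD600 about 0.5, 37° C, 185 rpm in LB) was pelleted, resuspended in fresh LB and seeded at 5×10^5 CFU/mL with recombinant protein at 50, 25 and 12.5 μg/mL (two-fold series), in triplicate. Plates were shaken at 175 rpm, 37° C, and OD600 was read every 30 min. MIC was the lowest concentration with no growth.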

[7] = tested on: Moraxella catarrhalis; assay: MIC against Gram-negative bacteria: Moraxella catarrhalis; conditions: M. catarrhalis; 10 h cultivation at 37° C.
How it was run: as §1

[8] = tested on: Proteus mirabilis; assay: MIC against Gram-negative bacteria: Proteus mirabilis; conditions: P. mirabilis; 10 h cultivation at 37° C.
How it was run: as §1

[9] = tested on: E. coli BL21; assay: MIC against Gram-negative bacteria: E. coli BL21; conditions: E. coli BL21; 10 h cultivation at 37° C.
How it was run: as §1

[10] = tested on: Klebsiella pneumonia; assay: MIC against Gram-negative bacteria: Klebsiella pneumonia; conditions: K. pneumonia; 10 h cultivation at 37° C.
How it was run: as §1

[11] = tested on: Citrobacter diversus; assay: MIC against Gram-negative bacteria: Citrobacter diversus; conditions: C. diversus; 10 h cultivation at 37° C.
How it was run: as §1

Substance | MIC [1] [µg/mL] | MIC [2] [µg/mL] | MIC [3] [µg/mL] | MIC [4] [µg/mL] | MIC [5] [µg/mL] | MIC [6] [µg/mL] | MIC [7] [µg/mL] | MIC [8] [µg/mL] | MIC [9] [µg/mL] | MIC [10] [µg/mL] | MIC [11] [µg/mL]
PRT1020 (SRQTCANNRHQCSVHAECRDYATGFCCSCVAGYTGNGRQCV; listed as Homo sapiens) | 12.5 | 12.5 | 12.5 | 50 | 25 | 12.5 | 12.5 | 12.5 | 12.5 | 25 | 12.5
PRT1021 (LQNPCYIGTHGCDTNAACRPGPRTQFTCECSIGFRGDGRTCY; listed as Homo sapiens) | 25 | 25 | 12.5 | 12.5 | 50 | 25 | 12.5 | 50 | 12.5 | 50 | 50
PRT1022 (DIDECSEQPSVCGSHTICNNHPGTFRCECVEGYQFSDEGTCV; listed as Homo sapiens) | 12.5 | 25 | 25 | 12.5 | 12.5 | 12.5 | 12.5 | 50 | 50 | 25 | 50
PRT1023 (PINYCETGLHNCDIPQRAQCIYTGGSSYTCSCLPGFSGDGQACQ; listed as Homo sapiens) | 25 | 25 | 12.5 | 50 | 12.5 | 25 | 12.5 | 12.5 | 12.5 | 12.5 | 25
PRT1024 (DVDECQPSRCHPDAFCYNTPGSFTCQCKPGYQGDGFRCV; listed as Homo sapiens) | 50 | 12.5 | 25 | 50 | 12.5 | 50 | 25 | 12.5 | 12.5 | 25 | 50
PRT1025 (GHNYCSVNNGGCTHLCLATPGSRTCRCPDNTLGVDCI; listed as Homo sapiens) | 12.5 | 50 | 100 | 25 | 50 | 50 | 25 | 12.5 | 25 | 25 | 50
PRT1026 (NKETCEHNHRQCSRHAFCTDYATGFCCHCQSKFYGNGKHCL; listed as Homo sapiens) | 50 | 12.5 | 50 | 25 | 50 | 12.5 | 50 | 12.5 | 25 | 25 | 12.5
PRT1027 (PGNPCYDGSHMCDTTARCHPGTGVDYTCECASGYQGDGRNCV; listed as Homo sapiens) | 12.5 | 50 | 12.5 | 12.5 | 50 | 12.5 | 12.5 | 50 | 25 | 25 | 50
PRT1028 (DENECATGFHRCGPNSVCINLPGSYRCECRSGYEFADDRHTCI; listed as Homo sapiens) | 25 | 25 | 25 | 25 | 50 | 12.5 | 25 | 50 | 50 | 50 | 12.5
PRT1029 (PANPCEDGSHTCAPAGQARCVHHGGSTFSCACLPGYAGDGHQCT; listed as Homo sapiens) | 50 | 50 | 12.5 | 12.5 | 50 | 12.5 | 12.5 | 50 | 12.5 | 12.5 | 50
PRT1030 (DVDECSENRCHPAATCYNTPGSFSCRCQPGYYGDGFQCI; listed as Homo sapiens) | 50 | 50 | 25 | 12.5 | 50 | 25 | 12.5 | 50 | 12.5 | 12.5 | 50
PRT1031 (MCVTYHNGTGYCKCPEGFLGEYCQ; listed as Homo sapiens) | 12.5 | 12.5 | 50 | 50 | 12.5 | 12.5 | 12.5 | 12.5 | 50 | 50 | 25
PRT1032 (DVNECDIPGHCQHGGTCLNLPGSYQCQCLQGFTGQYCD; listed as Homo sapiens) | 50 | 50 | 12.5 | 12.5 | 25 | 50 | 50 | 25 | 12.5 | 12.5 | 25
PRT1033 (LYVPCAPSPCVNGGTCRQTGDFTFECNCLPETVRRGTE; listed as Homo sapiens) | 50 | 50 | 12.5 | 25 | 50 | 50 | 100 | 50 | 12.5 | 25 | 50
PRT1034 (DENECEQNNGGCSEICVNLKNSYRCECGVGRVLRSDGKTCE; listed as Homo sapiens) | 25 | 50 | 50 | 12.5 | 50 | 25 | 12.5 | 50 | 50 | 12.5 | 50
PRT1035 (HRAKCAPSYLFSCFNGGECVHPAFCDCRRFNATGPRCQ; listed as Homo sapiens) | 12.5 | 25 | 50 | 25 | 50 | 12.5 | 25 | 12.5 | 50 | 25 | 12.5
PRT1036 (VEDKCEKACRPEEECLALNSTWGCFCRQDLNSSDVHSLQPQLDCG; listed as Homo sapiens) | 25 | 50 | 12.5 | 50 | 50 | 25 | 12.5 | 50 | 50 | 25 | 50
PRT1037 (DCSRPCPPGRQKSPRDPCQCVCHGSAVTTQDCC; listed as Homo sapiens) | 50 | 25 | 25 | 50 | 50 | 12.5 | 25 | 12.5 | 50 | 12.5 | 50
PRT1038 (FDMPCDETLCSADSFCVNDYTWGGSRCQCTLGKGGESCS; listed as Homo sapiens) | 50 | 50 | 12.5 | 12.5 | 25 | 50 | 50 | 50 | 12.5 | 50 | 25
